Measured values reported in patent publication US6642251B1, “Geometrically restricted 2-indolinone derivatives as modulators of protein kinase activity” (Sugen, Inc., priority 1998, dated 2003).

molecular target: EGFR (Homo sapiens, UniProt P00533); test: Cellular EGFR assay (cell EGFR); assay type: cell-based; design: expressed in transfected cells; host or cells: NIH 3T3/C7; details: 50% inhibition of target PTK activity
Description: EGF Receptor kinase activity in cells genetically engineered to express human EGF-R can be measured as described below:
1. NIH 3T3/C7 cell line (Honegger, et al., Cell 51:199-209, 1987) can be use for this assay.
1. Check seeded cells for contamination using an inverted microscope. Dilute test compounds stock (10 mg/ml in DMSO) 1:10 in DMEM medium, then transfer 5 μl to a test well for a test compounds drug dilution of 1:200 and a final DMSO concentration of 1%. Control wells receive DMSO alone. Incubate in 5% CO2 at 37° C. for one hour.
2. Prepare EGF ligand: dilute stock EGF in DMEM so that upon transfer of 10 μl dilute EGF (1:12 dilution), 25 nM final concentration is attained.
3. Prepare fresh 10 ml HNTG* sufficient for 100 μl per well wherein HNTG* comprises: HNTG stock (2.0 ml), milli-Q H2O (7.3 ml), EDTA, 100 mM, pH 7.0 (0.5 ml), Na3VO4 0.5 M (0.1 ml) and Na4(P2O7), 0.2 M (0.1 ml).
5. After two hours incubation with drug, add prepared EGF ligand to cells, 10 μl per well, to yield a final concentration of 25 nM. Control wells receive DMEM alone. Incubate, shaking, at room temperature, for 5 minutes.
6. Remove test compound, EGF, and DMEM. Wash cells twice with PBS. Transfer HNTG* to cells, 100 μl per well. Place on ice for 5 minutes. Meanwhile, remove blocking buffer from other ELISA plate and wash with TBST as described above.
7. With a pipette tip securely fitted to a micropipettor, scrape cells from plate and homogenize cell material by repeatedly aspirating and dispensing the HNTG* lysis buffer. Transfer lysate to a coated, blocked, and washed ELISA plate. Incubate shaking at room temperature for one hour.
8. Remove lysate and wash 4 times with TBST. Transfer freshly diluted anti-Ptyr antibody to ELISA plate at 100 μl per well. […]
12. The maximal phosphotyrosine signal is determined by subtracting the value of the negative controls from the positive controls. The percent inhibition of phosphotyrosine content for extract-containing wells is then calculated, after subtraction of the negative controls.

Chain of EGFR (P00533 25-1210): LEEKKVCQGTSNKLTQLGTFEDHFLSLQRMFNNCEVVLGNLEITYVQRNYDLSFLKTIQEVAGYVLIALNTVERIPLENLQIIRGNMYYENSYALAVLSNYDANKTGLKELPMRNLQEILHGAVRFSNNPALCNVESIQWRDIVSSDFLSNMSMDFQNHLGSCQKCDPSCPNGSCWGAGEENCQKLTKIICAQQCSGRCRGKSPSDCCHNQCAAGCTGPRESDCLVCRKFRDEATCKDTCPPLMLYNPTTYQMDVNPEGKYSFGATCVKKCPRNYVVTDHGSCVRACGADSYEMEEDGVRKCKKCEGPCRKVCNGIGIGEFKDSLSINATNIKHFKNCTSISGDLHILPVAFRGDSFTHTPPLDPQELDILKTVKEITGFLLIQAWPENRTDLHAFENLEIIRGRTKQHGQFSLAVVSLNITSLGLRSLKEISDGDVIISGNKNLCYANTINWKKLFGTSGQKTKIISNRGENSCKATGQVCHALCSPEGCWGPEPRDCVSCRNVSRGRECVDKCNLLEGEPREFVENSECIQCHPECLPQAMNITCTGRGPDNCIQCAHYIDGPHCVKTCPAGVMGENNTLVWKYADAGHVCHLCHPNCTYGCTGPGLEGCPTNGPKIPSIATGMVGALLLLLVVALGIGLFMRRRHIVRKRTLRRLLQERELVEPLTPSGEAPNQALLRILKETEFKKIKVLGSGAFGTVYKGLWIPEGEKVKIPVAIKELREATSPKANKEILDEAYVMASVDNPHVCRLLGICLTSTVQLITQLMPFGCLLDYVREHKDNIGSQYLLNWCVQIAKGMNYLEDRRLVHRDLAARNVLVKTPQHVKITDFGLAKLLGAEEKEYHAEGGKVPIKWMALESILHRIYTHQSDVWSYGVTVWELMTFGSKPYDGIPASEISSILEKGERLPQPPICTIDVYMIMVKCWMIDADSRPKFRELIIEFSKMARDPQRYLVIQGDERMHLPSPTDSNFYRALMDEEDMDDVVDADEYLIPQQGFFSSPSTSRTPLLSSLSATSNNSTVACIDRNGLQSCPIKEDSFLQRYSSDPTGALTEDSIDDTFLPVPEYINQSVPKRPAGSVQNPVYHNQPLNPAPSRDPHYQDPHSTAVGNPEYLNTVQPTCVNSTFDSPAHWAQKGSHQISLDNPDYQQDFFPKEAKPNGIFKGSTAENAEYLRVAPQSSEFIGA

IC50, > 100 µM:
O=C1Nc2ccccc2/C1=C1\CCc2ccccc21 [Compound 10, 3-Indan-1-ylidene-1,3-dihydroindol-2-one]
COc1ccc2c(c1)C(CC(=O)O)C/C2=C1/C(=O)Nc2ccccc21 (stereo not drawn) [Compound 11, [6-Methoxy-3-(2-oxo-1,2-dihydroindol-3-ylidene)-indan-1-yl]acetic Acid]
COc1ccc2c(c1)C(CC(=O)[O-])CC2=C1C(=O)Nc2ccccc21.[Na+] (stereo not drawn) [Compound 13, [6-Methoxy-3-(2-oxo-1,2-dihydroindol-3-ylidene)-indan-1-yl]acetic Acid Sodium Salt]
